Experimental data published in paper PMC10674160, “Synthesis and Preclinical Evaluation of Radiolabeled [^103Ru]BOLD-100” (Pharmaceutics, 2023).

Test: Tissue distribution in CT26 allograft bearing Balb/c mice (ICP-MS for 3a, gamma counting for 3b)
Assay type: in vivo
Settings: 30 mg/kg i.v.
Protocol: UV/Vis spectra were recorded on a Hitachi U-2000 Dual Beam spectrophotometer. Sample activities were measured on an ISOMED 2010 dose calibrator. For centrifugation during synthesis, a Fisherbrand^TM Mini-Centrifuge from Fisher Scientific was used. Radioactive organ samples were measured on Perkin Elmer Wizard^2 gamma counter. Non-radioactive organ samples were prepared, and the ruthenium content was quantified with ICP-MS. The exact procedure including instrument information can be found in the Supplementary Materials.
For the evaluation of organ distribution, CT26 cells (5 × 10^5 in serum-free medium) were injected subcutaneously into the right flank of Balb/c mice. Animals were controlled for distress development every day and tumor size was assessed regularly using caliper measurements. CT26 cells were inoculated 10 days prior to drug application. Tumor volume was calculated using the formula: (length × width^2); the tumors reached a size of about 500 mm^3. Animals were treated once intravenously (i.v.) via tail-vein injection with 3a or 3b at a dose of 30 mg/kg (dissolved in 0.9% NaCl, 0.6 mg/100 µL/20 g mouse) and a specific activity of 0.64–1.36 MBq/mg for compound 3b. The mice were anesthetized and sacrificed by cervical fracture 4, 24, 48 and 72 h p.i., with n ≥ 2 (3a) and n ≥ 3 (3b) for each time point. Samples of tumor, liver, kidney, muscle, heart, lung, spleen, pancreas, stomach, colon, small intestine, brain, bone, and blood were collected from each mouse. After clotting at RT, serum was isolated from the collected blood samples by centrifugation at 3000 rpm for 10 min twice and stored together with the collected tissue samples at −20 °C. Finally, the ruthenium content was quantified by ICP-MS in the case of the non-radioactive BOLD-100 (3a) and via gamma counting for [^103Ru]BOLD-100 (3b).
An Agilent 7800 ICP-MS (Agilent Technologies, Tokyo, Japan) was being employed, which was equipped with an Agilent SPS 4 autosampler (Agilent Technologies, Tokyo, Japan) and a MicroMist nebulizer at a sample uptake rate of approx. 0.2 mL/min. The Agilent MassHunter software package (Workstation Software, Version C.01.04, 2018) was used for data evaluation. The instrumental parameters […]
Reference source not found..
Ta ble S1: Instrumental parameters for the ICP-MS measurements […]
Spray chamber Scott double-pass
Spraying chamber temp. 2°C
Nebulizer gas 1.06 L min−1
Auxiliary gas 0.90 L min−1
The instrumental limit of quantification (LOQ) was determined at the start of the measurement by […]
LOQ = blank average + 10*STD
Blank corrections were performed for all the samples. Robustness was ensured by tuning the ICP-MS on a daily basis, by using an internal standard (115In) and measuring calibration standards for each […]
Ultrapure water (18.2 MΩ cm, ELGA Water purification system, Purelab Ultra MK 2, UK or 18.2 MΩ cm, Milli-Q Advantage, Darmstadt, Germany), HNO3 (≥69%, Rotipuran Supra, Carl Roth, Karlsruhe, Germany) and H2O2 (30%, Suprapur, Merck, Darmstadt, Germany) were used for all dilutions for ICP-MS measurements. The Ru standard solution was purchased from Labkings (Hilversum, The Netherlands).
For the digestion, approx. 25–50 mg of each organ sample were weighed into PFA-tubes, with 2 mL HNO3 and 100 µL H2O2 being added. The solutions were then placed on a hot plate and heated up for 6 hours using a temperature program with a maximum temperature of 200 °C. After cooling down, the liquids were transferred directly to 15 mL tubes with the remaining solution being removed from the PFA tubes by washing twice with 4 mL ultrapure water, resulting in a final volume of about 10 mL. By writing down the total weight of the resulting liquid, the dilution factor could be calculated.

[Cl][Ru-]([Cl])([Cl])[Cl].[Na+].c1ccc2[nH]ncc2c1.c1ccc2[nH]ncc2c1 [3a, sodium trans-[tetrachloridobis(indazole)ruthenate(III)]]
%ID/g tissue Blood cells (4 h p.i.): 10.70 ± 4.38 %ID/g tissue | %ID/g tissue Blood cells (24 h p.i.): 3.43 ± 0.83 %ID/g tissue | %ID/g tissue Blood cells (48 h p.i.): 1.96 ± 1.09 %ID/g tissue | %ID/g tissue Blood cells (72 h p.i.): 0.67 ± 0.86 %ID/g tissue | %ID/g tissue Bones (4 h p.i.): 1.08 ± 0.25 %ID/g tissue | %ID/g tissue Bones (24 h p.i.): 0.79 ± 0.20 %ID/g tissue | %ID/g tissue Bones (48 h p.i.): 0.88 ± 0.16 %ID/g tissue | %ID/g tissue Bones (72 h p.i.): 1.12 ± 0.35 %ID/g tissue | %ID/g tissue Brain (4 h p.i.): 0.36 ± 0.19 %ID/g tissue | %ID/g tissue Brain (24 h p.i.): 0.15 ± 0.07 %ID/g tissue | %ID/g tissue Brain (48 h p.i.): 0.10 ± 0.02 %ID/g tissue | %ID/g tissue Brain (72 h p.i.): 0.11 ± 0.00 %ID/g tissue | %ID/g tissue Colon (4 h p.i.): 3.53 ± 1.27 %ID/g tissue | %ID/g tissue Colon (24 h p.i.): 2.58 ± 0.13 %ID/g tissue | %ID/g tissue Colon (48 h p.i.): 1.68 ± 0.58 %ID/g tissue | %ID/g tissue Colon (72 h p.i.): 1.63 ± 0.00 %ID/g tissue | %ID/g tissue Heart (4 h p.i.): 5.81 ± 0.94 %ID/g tissue | %ID/g tissue Heart (24 h p.i.): 3.66 ± 1.31 %ID/g tissue | %ID/g tissue Heart (48 h p.i.): 3.28 ± 0.63 %ID/g tissue | %ID/g tissue Heart (72 h p.i.): 2.37 ± 1.97 %ID/g tissue | %ID/g tissue Kidneys (4 h p.i.): 11.58 ± 1.35 %ID/g tissue | %ID/g tissue Kidneys (24 h p.i.): 10.02 ± 1.09 %ID/g tissue | %ID/g tissue Kidneys (48 h p.i.): 7.34 ± 4.13 %ID/g tissue | %ID/g tissue Kidneys (72 h p.i.): 6.78 ± 0.18 %ID/g tissue | %ID/g tissue Liver (4 h p.i.): 12.90 ± 1.14 %ID/g tissue | %ID/g tissue Liver (24 h p.i.): 9.84 ± 0.60 %ID/g tissue | %ID/g tissue Liver (48 h p.i.): 8.96 ± 3.11 %ID/g tissue | %ID/g tissue Liver (72 h p.i.): 7.90 ± 0.35 %ID/g tissue | %ID/g tissue Lung (4 h p.i.): 8.24 ± 2.06 %ID/g tissue | %ID/g tissue Lung (24 h p.i.): 4.84 ± 0.53 %ID/g tissue | %ID/g tissue Lung (48 h p.i.): 4.64 ± 0.94 %ID/g tissue | %ID/g tissue Lung (72 h p.i.): 4.41 ± 1.94 %ID/g tissue | %ID/g tissue Muscle (4 h p.i.): 0.82 ± 0.18 %ID/g tissue | %ID/g tissue Muscle (24 h p.i.): 0.99 ± 0.28 %ID/g tissue | %ID/g tissue Muscle (48 h p.i.): 0.66 ± 0.16 %ID/g tissue | %ID/g tissue Muscle (72 h p.i.): 0.84 ± 0.02 %ID/g tissue | %ID/g tissue Pancreas (4 h p.i.): 5.14 ± 2.01 %ID/g tissue | %ID/g tissue Pancreas (24 h p.i.): 2.81 ± 0.68 %ID/g tissue | %ID/g tissue Pancreas (48 h p.i.): 3.18 ± 0.85 %ID/g tissue | %ID/g tissue Pancreas (72 h p.i.): 2.19 ± 0.01 %ID/g tissue | %ID/g tissue Serum (4 h p.i.): 24.85 ± 0.85 %ID/g tissue | %ID/g tissue Serum (24 h p.i.): 9.26 ± 1.03 %ID/g tissue | %ID/g tissue Serum (48 h p.i.): 6.29 ± 1.02 %ID/g tissue | %ID/g tissue Serum (72 h p.i.): 1.41 ± 1.56 %ID/g tissue | %ID/g tissue Small intestine (4 h p.i.): 6.38 ± 3.36 %ID/g tissue | %ID/g tissue Small intestine (24 h p.i.): 3.78 ± 0.51 %ID/g tissue | %ID/g tissue Small intestine (48 h p.i.): 3.28 ± 2.02 %ID/g tissue | %ID/g tissue Spleen (4 h p.i.): 4.23 ± 0.68 %ID/g tissue | %ID/g tissue Spleen (24 h p.i.): 4.02 ± 0.71 %ID/g tissue | %ID/g tissue Spleen (48 h p.i.): 4.59 ± 1.57 %ID/g tissue | %ID/g tissue Spleen (72 h p.i.): 3.92 ± 1.93 %ID/g tissue | %ID/g tissue Stomach (4 h p.i.): 2.57 ± 0.29 %ID/g tissue | %ID/g tissue Stomach (24 h p.i.): 2.13 ± 0.17 %ID/g tissue | %ID/g tissue Stomach (48 h p.i.): 1.76 ± 0.77 %ID/g tissue | %ID/g tissue Stomach (72 h p.i.): 1.40 ± 0.01 %ID/g tissue | %ID/g tissue Tumor (4 h p.i.): 4.43 ± 1.20 %ID/g tissue | %ID/g tissue Tumor (24 h p.i.): 8.34 ± 1.36 %ID/g tissue | %ID/g tissue Tumor (48 h p.i.): 7.64 ± 1.78 %ID/g tissue | %ID/g tissue Tumor (72 h p.i.): 5.32 ± 1.22 %ID/g tissue
